≈ marks a conversion by molar mass, not a printed value.
Tests used:
[1] = test system: CFA induced chronic inflammatory pain; test: CFA induced chronic inflammatory pain, von Frey tactile allodynia; type: in vivo, rats; conditions: for % Increase From Base Line, 8% topical: 8% (w/v) topical
Method: In this test, tactile allodynia is assessed with calibrated von Frey filaments. […] Animals were allowed to recover from the anaesthesia and the baseline thermal and mechanical nociceptive thresholds of all animals were assessed one week after the administration of CFA. All animals were habituated to the experimental equipment for 20 minutes on the day prior to the start of the experiment. The test and control articles were administrated to the animals, and the nociceptive thresholds were measured at defined time points after drug administration to determine the analgesic responses to each of the six available treatments. The time points used were previously determined to show the highest analgesic effect for each test compound. […] Each enantiomer was dosed at 10, 30, 100 or 200 mg/Kg. The plasma concentration achieved with each dose was also determined and the reversal of pain response (as the % increase from baseline threshold) is plotted as a function of plasma concentration. The (S)-enantiomer of the invention was also administered topically to the animals in varying dosages (1%, 2%, 4% and 8% (w/v)) and the nociceptive thresholds measured at defined time points after drug administration to determine the analgesic responses to each of the available treatments. The time points used were previously determined to show the highest analgesic effect for each test compound. The response thresholds of the animals to tactile stimuli were measured using the Model 2290 Electrovonfrey anesthesiometer (IITC Life Science, Woodland Hills, Calif.) following the Hargreaves test. The animals were placed in an elevated Plexiglas enclosure set on a wire mesh surface. After 15 minutes of accommodation, a pre-calibrated Von Frey hair was applied perpendicularly to the plantar of the ipsilateral hind paws of the animals, with sufficient force, measured in grams, to elicit a crisp response of the paw. The response indicated a withdrawal from the painful stimulus and constituted the efficacy endpoint. […] This cut off force is used because it represent approximately 10% of the animals' body weight and it serves to prevent raising of the entire limb due to the use of stiffer hairs, which would change the nature of the stimulus. The data were expressed as percent increase from baseline threshold measured in grams.

[2] = test system: chronic constriction injury neuropathic pain; test: Neuropathic pain model; chronic constriction injury (CCI); type: in vivo; conditions: topical ointment containing 2% (w/v)
[3] = Solubility in pharmaceutically acceptable excipients; type: physicochemical
Text: Thus, the (S)-enantiomer can be formulated in a fewer number of dosage units than the racemate. This property facilitates dosing patients at a higher level if needed to achieve efficacy.

[4] = test system: histamine-induced pruritis; test: Histamine-induced pruritis in vivo assay; parameters: species or system male ICR mice; conditions: scored over 40 minutes
Method: Histamine induces pruritis (itching) in humans. Accordingly, this assay evaluates the efficacy of topically and orally administered (S)-enantiomer of the invention on histamine-induced pruritis in male ICR mice. […] One day prior to testing, the scapular regions on the animals were shaved with hair clippers. On the testing day, the animals were habituated for 60 minutes in the test chamber comprising of a clear plastic tube placed vertically on a flat surface. After the habituation period, the animals were removed from the plastic tube, placed in a restrainer, and injected with histamine at the shaved scapular region. The injections were made intradermally into the skin in small injection volumes (10 μL) using a Hamilton syringe. […] Immediately after the injections, the animals were returned to the test chambers and observed by cameras placed above the test chambers for a total of 50 minutes. The cameras were connected to a computer where digital video files were created, saved, and analyzed. The number of itching bouts was scored over 40 minutes. An “itching bout” was defined as the lifting of a hind leg, using it to scratch the scapular region, and then placing it back on the ground. […] The data were analyzed using GraphPad Prism 5 statistical analysis software and an unpaired t-test was used for univariate analysis. Results are expressed as mean±SEM. […]

[5] = test system: dental pain; test: Clinical trial for dental pain after extraction of impacted third molar teeth; type: in vivo; conditions: single 500 mg dose, human subjects
Method: The purpose of this clinical trial was to compare the safety and efficacy (onset, duration of relief, and overall efficacy) of a single 500 mg dose of the (S)-enantiomer of the invention versus placebo dose for relief of pain following extraction of impacted third molar teeth.
Sixty-one subjects were enrolled in the study. The mean age for the subjects was 20.4 years, and all subjects were male. The majority of subjects were Caucasians (95.1%).
The severity and relief of the pain was measured using an 11-point Pain Intensity Numerical Rating Scale (graded from 0=no pain at all to 10=worst pain imaginable) (PINRS) and a 5-point Categorical Pain Relief Scale (REL). Subjects completed the PINRS after surgery, but before the administration of (S)-enantiomer of the invention. Efficacy variables were derived from the REL and PINRS scores and included total pain relief (TOTPAR), pain intensity difference (PID), and summed pain intensity difference (SPID) and evaluated at time points of 4, 6, 8, and 12 hours after administration of the (S)-enantiomer of the invention.

[6] = Phase 1 clinical trial of topical ointment: systemic pharmacokinetics; type: in vivo, human
[7] = biological target: hNav1.7 (Homo sapiens, UniProt Q15858); test: cell-based
Sequence of hNav1.7 (Q15858 whole entry): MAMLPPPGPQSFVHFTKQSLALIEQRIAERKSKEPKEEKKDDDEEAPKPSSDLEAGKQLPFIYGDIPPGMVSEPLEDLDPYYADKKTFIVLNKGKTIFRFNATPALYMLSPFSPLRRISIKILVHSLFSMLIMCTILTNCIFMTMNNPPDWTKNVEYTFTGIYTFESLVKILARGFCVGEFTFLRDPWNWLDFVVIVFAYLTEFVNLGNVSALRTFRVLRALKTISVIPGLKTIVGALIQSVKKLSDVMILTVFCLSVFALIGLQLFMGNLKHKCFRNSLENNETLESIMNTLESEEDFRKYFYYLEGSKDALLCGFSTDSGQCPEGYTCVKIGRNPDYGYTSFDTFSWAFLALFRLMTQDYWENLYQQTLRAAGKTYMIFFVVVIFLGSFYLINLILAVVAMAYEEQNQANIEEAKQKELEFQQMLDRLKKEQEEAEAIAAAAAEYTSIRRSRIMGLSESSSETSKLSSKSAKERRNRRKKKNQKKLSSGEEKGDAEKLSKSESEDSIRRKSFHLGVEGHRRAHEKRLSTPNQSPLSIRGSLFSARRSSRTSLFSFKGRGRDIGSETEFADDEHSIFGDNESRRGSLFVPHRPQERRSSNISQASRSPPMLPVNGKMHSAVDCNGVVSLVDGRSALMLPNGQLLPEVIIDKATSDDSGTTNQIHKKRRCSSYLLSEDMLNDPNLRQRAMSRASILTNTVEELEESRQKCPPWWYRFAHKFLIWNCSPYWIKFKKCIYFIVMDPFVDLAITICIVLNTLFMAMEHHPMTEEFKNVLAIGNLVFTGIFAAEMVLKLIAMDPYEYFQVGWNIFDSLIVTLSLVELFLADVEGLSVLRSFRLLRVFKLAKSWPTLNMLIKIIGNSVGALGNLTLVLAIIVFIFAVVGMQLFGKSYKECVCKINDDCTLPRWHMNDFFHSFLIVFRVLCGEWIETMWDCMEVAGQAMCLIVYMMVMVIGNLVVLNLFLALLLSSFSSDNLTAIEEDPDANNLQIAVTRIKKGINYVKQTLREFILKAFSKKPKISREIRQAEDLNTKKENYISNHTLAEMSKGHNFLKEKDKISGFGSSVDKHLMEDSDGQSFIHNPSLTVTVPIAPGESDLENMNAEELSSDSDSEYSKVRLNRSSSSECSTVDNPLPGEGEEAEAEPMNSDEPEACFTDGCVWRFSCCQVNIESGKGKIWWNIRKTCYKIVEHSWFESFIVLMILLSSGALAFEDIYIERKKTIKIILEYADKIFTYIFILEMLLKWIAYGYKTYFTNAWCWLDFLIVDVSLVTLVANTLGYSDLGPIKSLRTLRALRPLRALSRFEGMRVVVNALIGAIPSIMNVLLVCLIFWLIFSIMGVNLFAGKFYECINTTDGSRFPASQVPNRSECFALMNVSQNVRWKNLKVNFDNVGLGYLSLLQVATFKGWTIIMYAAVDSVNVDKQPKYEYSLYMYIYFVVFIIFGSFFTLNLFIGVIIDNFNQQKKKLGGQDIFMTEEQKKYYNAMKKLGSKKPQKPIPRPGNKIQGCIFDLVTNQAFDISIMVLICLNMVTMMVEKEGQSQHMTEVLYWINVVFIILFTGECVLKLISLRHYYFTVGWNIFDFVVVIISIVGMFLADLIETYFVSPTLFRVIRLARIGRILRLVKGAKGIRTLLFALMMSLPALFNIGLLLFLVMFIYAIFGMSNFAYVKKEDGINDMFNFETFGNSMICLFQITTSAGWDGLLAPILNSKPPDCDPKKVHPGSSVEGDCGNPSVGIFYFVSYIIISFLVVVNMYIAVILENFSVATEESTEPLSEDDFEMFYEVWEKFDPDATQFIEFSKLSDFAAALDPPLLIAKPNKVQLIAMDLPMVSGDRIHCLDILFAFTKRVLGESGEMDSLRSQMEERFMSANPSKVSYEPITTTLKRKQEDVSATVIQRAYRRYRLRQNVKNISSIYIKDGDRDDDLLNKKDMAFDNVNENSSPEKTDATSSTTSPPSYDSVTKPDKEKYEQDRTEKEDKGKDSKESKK

[8] = von Frey mechanical paw withdrawal threshold
[9] = von Frey mechanical paw withdrawal threshold, listed as (S)-enantiomer

## O=C1N(Cc2ccc(C(F)(F)F)o2)c2ccccc2[C@]12COc1cc3c(cc12)OCO3 [(I-S), (S)-1′-{[5-(trifluoromethyl)furan-2-yl]methyl}spiro[furo[2,3-f][1,3]benzodioxole-7,3′-indol]-2′(1′H)-one]
[1]; oral dosing, 200 mg/Kg, compared with the other enantiomer
  maximal effect, reversal of pain response: greater maximal effect
[1]; [8]
  % Increase From Base Line, 1% topical: 0.62%
  % Increase From Base Line, 8% topical: 45.06%
[1]; [9]
  % Increase From Base Line, 1% topical: did not demonstrate an observable increase
  % Increase From Base Line, 8% topical: 45.1%
[1]; von Frey mechanical paw withdrawal threshold, 2% (w/v) topical
  % Increase From Base Line, 2% topical: 16.71%
[1]; von Frey mechanical paw withdrawal threshold, 4% (w/v) topical
  % Increase From Base Line, 4% topical: 28.79%
[2]
  reversal of pain responses, percent increase from baseline: reversed pain responses
[3]; Ethanol, organic solvent or mixture
  solubility: 36.4 mg/mL (≈ 84.8 mM)
[3]; PEG 400, organic solvent or mixture
  solubility: > 55 mg/mL
[3]; Propylene glycol, organic solvent or mixture
  solubility: 9.8 mg/mL (≈ 22.8 mM)
[3]; oil or lipid, Capryol ® 90
  solubility: 96 mg/mL (≈ 224 mM)
[3]; oil or lipid, Labrasol ®
  solubility: 231 mg/mL (≈ 538 mM)
[3]; oil or lipid, Labrasol ®/Capryol ® 90 60/40
  solubility: 191 mg/mL (≈ 445 mM)
[3]; organic solvent or mixture, Labrasol ®/PEG 400 60/40
  solubility: 182 mg/mL (≈ 424 mM)
[3]; organic solvent or mixture, Labrasol ®/Transcutol ® 60/40
  solubility: 186 mg/mL (≈ 433 mM)
[3]; organic solvent or mixture, Tween ® 80
  solubility: > 123 mg/mL
[4]; 50 mg of 8% (w/v) topical, n=16, vehicle 134.3±13.31
  total number of itching bouts: 89.00±10.51 itching bouts
[4]; 50 mg/Kg oral gavage, n=8, vehicle 42.88±6.667
  total number of itching bouts: 17.25±6.310 itching bouts
[5]
  onset of action: slow onset of action
  pain relief compared to placebo: higher
  primary and all secondary endpoints (TOTPAR, PID, SPID) versus placebo: consistent analgesic trend
  statistical significance from the placebo: not achieved
[6]; below LLOQ in most samples (489 out of 546=~90%)
  concentrations in plasma: < 0.1 ng/mL
[6]; human, plasma, Day 22, read-out: highest level observed in plasma in one subject during the dosing period
  concentration at 22 day: 0.994 ng/mL
[7]
  IC50: 3 nM

— patent US9480677B2, “Enantiomers of spiro-oxindole compounds and their uses as therapeutic agents” (Xenon Pharmaceuticals Inc., priority 2009, dated 2016)
